# Measured values from US6372297B1, “Wood preservative oxathiazines” (Uniroyal Chemical Company, Inc., priority 1993, dated 2002).
# Like-named read-outs stand apart in the source and are kept apart here.
# How the values were obtained:
# [1] = system: molds and blue-stain fungi; test: In vitro activity against molds and blue-stain fungi, poison plate assay (MIC); assay type: cell-based; conditions: malt extract agar, complete inhibition
# Protocol: The effect of the representative compounds on the growth of certain molds and blue-strain fungi were determined using a poison plate assay according to the following procedure: The solutions of the representative compounds prepared above were further diluted with sterile water to desired concentrations and poured into Petri dishes. Malt extract agar medium was then added aseptically to the Petri dishes and to Petri dishes containing no compound (controls). The Petri dishes were then shaken to provide a uniform distribution of the agar medium. Each Petri dish containing compound and each control Petri dish, was then inoculated with a fungus and incubated for a period of time sufficient to permit complete growth of the fungus in the respective control Petri dish. The Petri dishes containing compound were then examined to determine the amount of inhibition of fungi for each concentration of compound tested.
# [2] = system: blue-stain fungi and molds; test: Activity against blue-stain fungi and molds in a stick test (threshold concentrations); conditions: beech sticks, 22° C., 90% relative humidity; for Threshold concentration (ppm), A. niger, score 0 / Threshold concentration (ppm), Aureobasidium, score 0 / Threshold concentration (ppm), Sclerophoma, score 0 / Threshold concentration (ppm), Trichoderma, score 0: minimum concentration to obtain score 0; for Threshold concentration (ppm), A. niger, score 1-2 / Threshold concentration (ppm), Aureobasidium, score 1-2 / Threshold concentration (ppm), Sclerophoma, score 1-2 / Threshold concentration (ppm), Trichoderma, score 1-2: minimum concentration to obtain score 1-2
# Protocol: Representative compounds of this invention were dissolved in 50% ethanol. Each compound was then diluted serially using 50% ethanol. […] After three (3) hours, the solutions containing the test compounds were poured off and the treated sticks were allowed to dry in a sterile laminar air flow. Each treated stick was then placed in a Petri dish which had been previously seeded with inoculum. Two drops of a test fungal or spore suspension were pipetted onto the upper surface of each treated stick. The Petri dishes containing the treated sticks were incubated at 22° C. and 90% relative humidity. The treated sticks were evaluated after there was sufficient growth of fungus on control sticks (i.e., untreated sticks) incubated in the same manner. The following score system was used: 0: Stick free of fungal/mold growth 1: Traces of fungal growth on the stick 2: Slight growth (5 to 25% of the surface covered with fungal growth) 3: Moderate growth (25 to 50% covered with fungal growth) 4. Vigorous to maximum fungal growth (more than 50% growth) […]
Compound,"Threshold concentration (ppm), A. niger, score 0 [2]","Threshold concentration (ppm), A. niger, score 1-2 [2]","Threshold concentration (ppm), Aureobasidium, score 0 [2]","Threshold concentration (ppm), Aureobasidium, score 1-2 [2]","Threshold concentration (ppm), Sclerophoma, score 0 [2]","Threshold concentration (ppm), Sclerophoma, score 1-2 [2]","Threshold concentration (ppm), Trichoderma, score 0 [2]","Threshold concentration (ppm), Trichoderma, score 1-2 [2]",other results
"O=S1(=O)CCON=C1c1nc2ccccc2s1 [Compound 83, 5,6-dihydro-3-(2-benzothiazolyl)-1,4,2-oxathiazine 4,4-dioxide]",,,,,,,,,"MIC ([1]; A. amstelodami, read-out: MIC (ppm) against A. amstelodami): > 25 µg/mL; MIC ([1]; Aspergillus niger, A. niger, read-out: MIC (ppm) against A. niger): > 25 µg/mL; MIC ([1]; Aspergillus versicolor, A. versicolor, read-out: MIC (ppm) against A. versicolor): 25 µg/mL; MIC ([1]; Aureobasidium pullulans, A. pullulans, read-out: MIC (ppm) against A. pullulans): > 25 µg/mL; MIC ([1]; C. pilifera, read-out: MIC (ppm) against C. pilifera): 10 µg/mL; MIC ([1]; Cladosporium cladosporioides, C. cladosporioides, read-out: MIC (ppm) against C. cladosporioides): > 25 µg/mL; MIC ([1]; Fusarium solani, F. solani, read-out: MIC (ppm) against F. solani): > 25 µg/mL; MIC ([1]; Geotrichum candidum, G. candidum, read-out: MIC (ppm) against G. candidum): > 25 µg/mL; MIC ([1]; P. purpurogenum, read-out: MIC (ppm) against P. purpurogenum): > 25 µg/mL; MIC ([1]; P. violacea, read-out: MIC (ppm) against P. violacea): > 25 µg/mL; MIC ([1]; Paecilomyces variotii, P. variotii, read-out: MIC (ppm) against P. variotii): > 25 µg/mL; MIC ([1]; S. atra, read-out: MIC (ppm) against S. atra): 5 µg/mL; MIC ([1]; S. entoxylina, read-out: MIC (ppm) against S. entoxylina): 10 µg/mL; MIC ([1]; Trichoderma viride, T. viride, read-out: MIC (ppm) against T. viride): > 25 µg/mL; MIC ([1]; U. atrum, read-out: MIC (ppm) against U. atrum): > 25 µg/mL"
CCOC(=O)c1ccc(C2=NOCC[S+]2[O-])s1 (stereo not drawn) [Compound 54],500 ppm,<250 ppm,500 ppm,250-500 ppm,100 ppm,<50 ppm,5000 ppm,500-1000 ppm,
[O-][S+]1CCON=C1c1nc2ccccc2o1 (stereo not drawn) [Compound 81],500 ppm,250-500 ppm,>1000 ppm,250-500 ppm,250 ppm,<50 ppm,2500 ppm,500-1000 ppm,
Cc1ccc2oc(C3=NOCC[S+]3[O-])nc2c1 (stereo not drawn) [Compound 89],500 ppm,250-500 ppm,>1000 ppm,100-250 ppm,250 ppm,<50 ppm,2500 ppm,1000-2500 ppm,
